The results in this text go back to patent US8722849B2, “Polypeptides” (Novo Nordisk A/S, priority 2011, dated 2014).

Data set [1] concerns the target T1, human amylin receptor (amylin 3(a) receptor: human calcitonin receptor + RAMP-3) (Homo sapiens, UniProt O60896+P30988).
T1 construct: expressed in transfected cells; host or cells: BHK570
T1 sequence (P30988 25-474): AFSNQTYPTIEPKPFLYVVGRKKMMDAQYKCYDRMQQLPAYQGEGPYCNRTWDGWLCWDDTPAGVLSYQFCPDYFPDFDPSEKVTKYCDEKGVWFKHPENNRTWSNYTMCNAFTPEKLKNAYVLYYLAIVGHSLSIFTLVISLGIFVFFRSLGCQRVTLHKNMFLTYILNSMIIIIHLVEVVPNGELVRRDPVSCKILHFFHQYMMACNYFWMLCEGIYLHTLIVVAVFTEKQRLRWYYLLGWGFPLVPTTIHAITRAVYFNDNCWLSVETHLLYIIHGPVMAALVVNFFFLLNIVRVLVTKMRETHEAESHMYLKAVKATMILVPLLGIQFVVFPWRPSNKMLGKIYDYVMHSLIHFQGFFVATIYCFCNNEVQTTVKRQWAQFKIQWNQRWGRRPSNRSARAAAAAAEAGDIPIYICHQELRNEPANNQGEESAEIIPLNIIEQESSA
T1 sequence (O60896 24-148 partner): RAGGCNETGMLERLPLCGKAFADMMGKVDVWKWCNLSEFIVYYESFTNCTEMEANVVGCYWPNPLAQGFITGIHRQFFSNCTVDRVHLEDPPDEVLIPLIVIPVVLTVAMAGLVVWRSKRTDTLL
Description: Assay (II)a functional CRE-luciferase assay, human amylin receptor. Type of data set: cell-based. The note with it: Table 2; BHK amylin 3(a)-receptor/CRE-luc cells.

Data set [2] can be described thus: Assay (III) ThT fibrillation assay for physical stability. Type of data set: physicochemical. The method, boiled down:
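Freshly prepared formulations, pH-adjusted, with 1 μM ThT; four or eight replicates incubated at 37 °C under 960 rpm orbital shaking. Fluorescence (ex 444/em 485 nm) read every 20 min; […]. Peptide concentration measured by RP-HPLC before and after the run.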

For data set [3], the target named is T2, human calcitonin receptor (Homo sapiens, UniProt P30988).
T2 construct: expressed in transfected cells; host or cells: BHK570
T2 sequence (P30988 25-474): T1 sequence (P30988 25-474)
Description: Assay (II)a functional CRE-luciferase assay, human calcitonin receptor. The note with it: Table 7; human calcitonin (CTa) receptor. The format is cell-based.

Data set [4] is described as follows: Assay (IV) determination of solubility. The format is physicochemical. Put shortly:
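Solubility is measured across pH 3.0–8.0 by mixing a ~500 nmol/ml aqueous polypeptide stock 1:1 with 100 mM glycylglycine or bistrispropane buffers. Samples stand 18 hours at room temperature, then are centrifuged and the soluble concentration is determined by HPLC.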

Where [5] appears, read: bistrispropane buffer, pH 6, pH 6.0, read-out: Solubility pH 6.0.
Where [6] appears, read: bistrispropane buffer, pH 6.5, pH 6.5, read-out: Solubility pH 6.5.
The mark [7] stands for this setting: bistrispropane buffer, pH 7, pH 7.0, 18 hours at room temperature, Table 3, read-out: Solubility pH 7.0.
[8] abbreviates: bistrispropane buffer, pH 7, pH 7.0, read-out: Solubility pH 7.0.
The mark [9] stands for this setting: bistrispropane buffer, pH 7.5, pH 7.5, read-out: Solubility pH 7.5.
The mark [10] stands for this setting: bistrispropane buffer, pH 8, pH 8.0, read-out: Solubility pH 8.0.
Setting [11] is: glycylglycine buffer, pH 3, pH 3.0, read-out: Solubility pH 3.0.
Setting [12] is: glycylglycine buffer, pH 4, pH 4.0, 18 hours at room temperature, Table 2, read-out: Solubility pH 4.0.
Setting [13] is: glycylglycine buffer, pH 4, pH 4.0, read-out: Solubility pH 4.0.
The mark [14] stands for this setting: glycylglycine buffer, pH 5, pH 5.0, read-out: Solubility pH 5.0.

The structures appear in SMILES notation. pEC50: −log10 of the molar value. ≈ marks a conversion by molar mass, not a printed value. Like-named read-outs stand apart in the source and are kept apart here. Starred links: 1 amine or outer side, 2 acyl side, 3 side chain; linkers in the order of their positions; H or OH if unused. Positions of bridges follow the written chain, without caps; N, C: chain ends. Residues, ends and D or L forms follow the SMILES beside them. Groups on a side chain read outwards from the residue. *: point of attachment. C20 diacid = O=C(O)CCCCCCCCCCCCCCCCCCC(=O)*; C18 diacid = O=C(O)CCCCCCCCCCCCCCCCC(=O)*; γGlu = O=C(O)[C@H](CCC(=O)[*:2])N[*:1]; AEEA = NCCOCCOCC(=O)O Where only a bound is given, the exact number is not on record here.

In the case of `CC[C@H](C)[C@H](NC(=O)[C@@H]1CCCN1C(=O)CNC(=O)[C@H](Cc1ccccc1)NC(=O)[C@H](CC(N)=O)NC(=O)[C@H](CC(N)=O)NC(=O)[C@H](CO)NC(=O)[C@H](CO)NC(=O)[C@H](Cc1c[nH]cn1)NC(=O)[C@@H](NC(=O)[C@H](CC(C)C)NC(=O)[C@H](Cc1ccccc1)NC(=O)[C@H](CCC(=O)O)NC(=O)[C@H](C)NC(=O)[C@H](CC(C)C)NC(=O)[C@H](CCCNC(=N)N)NC(=O)[C@H](CCC(N)=O)NC(=O)[C@@H](NC(=O)[C@H](C)NC(=O)[C@@H]1CSSC[C@H](NC(=O)[C@H](CCCNC(=N)N)NC(=O)CNC(=O)CC[C@H](NC(=O)CCCCCCCCCCCCCCCCCCC(=O)O)C(=O)O)C(=O)N[C@@H](CC(N)=O)C(=O)N[C@@H]([C@@H](C)O)C(=O)N[C@@H](C)C(=O)N[C@@H]([C@@H](C)O)C(=O)N1)[C@@H](C)O)C(C)C)C(=O)N[C@@H](CC(C)C)C(=O)N1CCC[C@H]1C(=O)N1CCC[C@H]1C(=O)N[C@H](C(=O)N[C@@H](CC(N)=O)C(=O)N[C@H](C(=O)NCC(=O)N[C@@H](CO)C(=O)N[C@@H](CC(N)=O)C(=O)N[C@H](C(=O)N1CCC[C@H]1C(N)=O)[C@@H](C)O)C(C)C)[C@@H](C)O` [Example 102, N-alpha-[(S)-4-Carboxy-4-(19-carboxynonadecanoylamino)butyryl]-Gly-[Arg1,Glu14,Pro37]-pramlintide] ({C20 diacid-γGlu}-GRCNTATCATQRLAEFLVHSSNNFGPILPPTNVGSNTP-NH2; disulfide 3-8 (inferred); C-terminus assumed), the pEC50 in data set [1] was 10.31; in data set [3], 10.30. The “ThT pH 4.0 lag time (h)” value in data set [2] (ThT fibrillation assay) worked out at 3.1 h. The solubility at 18 h was over 200 µM in data set [4] (setting [5]); 198 µM (≈ 879 µg/mL) in data set [4] (setting [6]); over 200 µM in data set [4] (setting [7]); over 200 µM in data set [4] (setting [8]); over 200 µM in data set [4] (setting [9]); over 200 µM in data set [4] (setting [10]). Further, the solubility at 18 h in data set [4] (setting [11]), in data set [4] (setting [12]), in data set [4] (setting [13]) and in data set [4] (setting [14]) was over 200 µM throughout.

For `CC[C@H](C)[C@H](NC(=O)[C@@H]1CCCN1C(=O)CNC(=O)[C@H](Cc1ccccc1)NC(=O)[C@H](CC(N)=O)NC(=O)[C@@H](NC(=O)[C@H](CO)NC(=O)[C@H](CO)NC(=O)[C@H](Cc1c[nH]cn1)NC(=O)[C@H](Cc1c[nH]cn1)NC(=O)[C@H](CC(C)C)NC(=O)[C@H](Cc1ccccc1)NC(=O)[C@H](CCC(=O)O)NC(=O)[C@H](C)NC(=O)[C@H](CC(C)C)NC(=O)[C@H](CCCNC(=N)N)NC(=O)[C@H](CCC(N)=O)NC(=O)[C@@H](NC(=O)[C@H](C)NC(=O)[C@@H]1CSSC[C@H](NC(=O)[C@H](CCCCN)NC(=O)CC[C@H](NC(=O)CCCCCCCCCCCCCCCCCCC(=O)O)C(=O)O)C(=O)N[C@@H](CC(N)=O)C(=O)N[C@@H]([C@@H](C)O)C(=O)N[C@@H](C)C(=O)N[C@@H]([C@@H](C)O)C(=O)N1)[C@@H](C)O)[C@@H](C)O)C(=O)N[C@@H](CC(C)C)C(=O)N1CCC[C@H]1C(=O)N1CCC[C@H]1C(=O)N[C@H](C(=O)N[C@@H](CC(N)=O)C(=O)N[C@H](C(=O)NCC(=O)N[C@@H](CO)C(=O)N[C@@H](CC(N)=O)C(=O)N[C@H](C(=O)N1CCC[C@H]1C(N)=O)[C@@H](C)O)C(C)C)[C@@H](C)O` [Example 146, N-alpha-[(S)-4-Carboxy-4-(19-carboxynonadecanoylamino)butyryl]-[Glu14,His17,Thr21,Pro37]-pramlintide] ({C20 diacid-γGlu}-KCNTATCATQRLAEFLHHSSTNFGPILPPTNVGSNTP-NH2; disulfide 2-7 (inferred)), the pEC50 in data set [1] was 10.04; in data set [3], 10.23. Further, the “ThT pH 4.0 lag time” value in data set [2] (Table 8), in data set [2] (Table 9) and in data set [2] (ThT fibrillation assay) was over 45 h in each case. Also, the “ThT pH 4.0 lag time (h)” value in data set [2] (ThT fibrillation assay) is given as over 45 h. Further, the solubility at 18 h in data set [4] (setting [5]) was over 200 µM; in data set [4] (setting [6]), over 200 µM; in data set [4] (setting [7]), over 200 µM; in data set [4] (bistrispropane buffer, pH 7, pH 7.0, Table 8, read-out: Solubility pH 7.0) it was over 200 µM; in data set [4] (bistrispropane buffer, pH 7, pH 7.0, Table 9, read-out: Solubility pH 7.0), over 200 µM; in data set [4] (setting [8]), over 200 µM. In addition, the solubility at 18 h is over 200 µM in data set [4] (bistrispropane buffer, pH 7.5, pH 7.5, Table 9, read-out: Solubility pH 7.5); over 200 µM in data set [4] (setting [9]); over 200 µM in data set [4] (setting [10]); over 200 µM in data set [4] (setting [11]); over 200 µM in data set [4] (setting [12]); over 200 µM in data set [4] (setting [13]). In data set [4] (setting [14]), the solubility at 18 h was over 200 µM.

Turning to `CC[C@H](C)[C@H](NC(=O)[C@H](CCCCNC(=O)COCCOCCNC(=O)COCCOCCNC(=O)CC[C@H](NC(=O)CCCCCCCCCCCCCCCCC(=O)O)C(=O)O)NC(=O)CNC(=O)[C@H](Cc1ccccc1)NC(=O)[C@H](CC(N)=O)NC(=O)[C@H](CO)NC(=O)[C@H](CO)NC(=O)[C@H](CO)NC(=O)[C@H](Cc1c[nH]cn1)NC(=O)[C@@H](NC(=O)[C@H](CC(C)C)NC(=O)[C@H](Cc1ccccc1)NC(=O)[C@H](CCC(=O)O)NC(=O)[C@H](C)NC(=O)[C@H](CC(C)C)NC(=O)[C@H](CCCNC(=N)N)NC(=O)[C@H](CCC(N)=O)NC(=O)[C@@H](NC(=O)[C@H](C)NC(=O)[C@@H]1CSSC[C@H](NC(=O)[C@@H](N)CCCCN)C(=O)N[C@@H](CC(N)=O)C(=O)N[C@@H]([C@@H](C)O)C(=O)N[C@@H](C)C(=O)N[C@@H]([C@@H](C)O)C(=O)N1)[C@@H](C)O)C(C)C)C(=O)N[C@@H](CC(C)C)C(=O)N1CCC[C@H]1C(=O)N1CCC[C@H]1C(=O)N[C@H](C(=O)N[C@@H](CC(N)=O)C(=O)N[C@H](C(=O)NCC(=O)N[C@@H](CO)C(=O)N[C@@H](CC(N)=O)C(=O)N[C@H](C(=O)N[C@@H](Cc1ccc(O)cc1)C(N)=O)[C@@H](C)O)C(C)C)[C@@H](C)O` [Example 72, N-epsilon25-[2-(2-{2-[2-(2-{2-[(S)-4-Carboxy-4-(17-carboxyheptadecanoylamino)butyrylamino]ethoxy}ethoxy)acetylamino]ethoxy}ethoxy)acetyl]-[Glu14,Ser21,Lys25]-pramlintide] (H-KCNTATCATQRLAEFLVHSSSNFGK([AEEA-AEEA-γGlu-C18 diacid])ILPPTNVGSNTY-NH2; disulfide 2-7 (inferred); N-terminus assumed), the pEC50 was 10.05 in data set [1] and 10.00 in data set [3]. Moreover, in data set [2] (ThT fibrillation assay), the “ThT pH 4.0 lag time (h)” value amounted to 10.3 h. The solubility at 18 h in data set [4] (setting [5]) was 168 µM (≈ 787 µg/mL); in data set [4] (setting [6]), 130 µM (≈ 609 µg/mL); in data set [4] (setting [7]), 126 µM (≈ 590 µg/mL); in data set [4] (setting [8]) it was 126 µM (≈ 590 µg/mL); in data set [4] (setting [9]) it was 165 µM (≈ 773 µg/mL); in data set [4] (setting [10]), over 200 µM. In addition, the solubility at 18 h in data set [4] (setting [11]), in data set [4] (setting [12]), in data set [4] (setting [13]) and in data set [4] (setting [14]) was over 200 µM throughout.
